These results are taken from patent US20200361895A1, “NOVEL SULFONAMIDE CARBOXAMIDE COMPOUNDS” (Inflazome Limited, priority 2017, published 2020).

Where a name gives a salt, the structure may show the parent alone. Read-outs that look alike come from different tables or passages of the source.

Data set [1] deals with T1, NLRP3 (Homo sapiens, UniProt Q96P20). Put plainly: Human whole blood IL1β release assay (LPS + nigericin, AlphaLisa IL-1β; HWB IC50). The class given is cell-based. Also noted: Human whole blood in Li-heparin tubes was obtained from healthy donors from a volunteer donor panel; from tissue; host or cells: human whole blood from healthy donors. Conditions: IL-1β release. The procedure, abridged:
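IL-1β in plasma supernatant quantified by AlphaLisa after nigericin (10 μM final, 1 h, 37 °C) triggering of human whole blood that had been preincubated 3 h with LPS (1 μg/ml) plus compound (half-log, 8 points, from 10 μM). IC50 by variable-slope four-parameter regression.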
On the technique in general: In Alpha technology, singlet oxygen from a donor bead excites a nearby acceptor bead.

Data set [2] deals with T1, NLRP3. Put plainly: THP-1 cells pyroptosis assay (LPS + nigericin, resazurin readout; THP IC50). Also noted: Seed THP-1 cells (25,000 cells/well) containing 1.0 μg/ml LPS in 40 μl of RPMI medium; host or cells: THP-1 cells. The class given is cell-based. The procedure, abridged: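 IC50 from 4-parameter fit of resazurin fluorescence (100 μM, 1-2 hrs), reflecting surviving cells after pyroptosis. LPS-primed (1 μg/ml) THP-1 cells in FBS-free RPMI got compound for 3 hrs at 37° C (top 10 μM, half-log, 8 points), then nigericin 5 μM for 1 hr.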

The nature of data set [3]: PK protocol, intravenous administration. The class given is in vivo, male Sprague Dawley rats. To be noted: male, Sprague Dawley, plasma, rat; for Vd: read-out: Vdss. Here is the method:
Pharmacokinetic parameters were determined in male Sprague Dawley rats (Charles River, UK, 250-350 g; or Vital River Laboratory Animal Technology Co Ltd, Beijing, China, 7-9 weeks old). Animals were individually housed during the study and maintained under a 12 h light/dark cycle. Animals had free access to food and water.
For intravenous administration, compounds were formulated as a solution in water or DMSO:PBS [10:90] in 2 mL/kg dosing volume and administered via tail vein. For oral administration, compounds were formulated as a solution in DMSO:water [10:90] in 5 mL/kg dosing volume and administered orally.
Serial blood samples (about 120-300 μL) were taken from each animal at each of 8 time-points post dose (0.083, 0.25, 0.5, 1, 2, 4, 8 and 24 h) or at each of 12 time-points post dose (0.03, 0.1, 0.17, 0.25, 0.5, 1, 2, 4, 6, 8, 12 and 24 h) or pre-dose and at each of 9 time-points post dose (0.25, 0.5, 1, 2, 4, 6, 8, 12 and 24 h). Samples were held on ice for no longer than 30 minutes before centrifugation (10,000 rpm (8,385 g) for 3 minutes; or 5,696 rpm (3,000 g) for 15 minutes) for plasma generation. Plasma was frozen on dry ice prior to bioanalysis. PK parameters were generated from LC-MS/MS data using Dotmatics or Phoenix WinNonlin 6.3 software.

T1 sequence (Q96P20 whole entry): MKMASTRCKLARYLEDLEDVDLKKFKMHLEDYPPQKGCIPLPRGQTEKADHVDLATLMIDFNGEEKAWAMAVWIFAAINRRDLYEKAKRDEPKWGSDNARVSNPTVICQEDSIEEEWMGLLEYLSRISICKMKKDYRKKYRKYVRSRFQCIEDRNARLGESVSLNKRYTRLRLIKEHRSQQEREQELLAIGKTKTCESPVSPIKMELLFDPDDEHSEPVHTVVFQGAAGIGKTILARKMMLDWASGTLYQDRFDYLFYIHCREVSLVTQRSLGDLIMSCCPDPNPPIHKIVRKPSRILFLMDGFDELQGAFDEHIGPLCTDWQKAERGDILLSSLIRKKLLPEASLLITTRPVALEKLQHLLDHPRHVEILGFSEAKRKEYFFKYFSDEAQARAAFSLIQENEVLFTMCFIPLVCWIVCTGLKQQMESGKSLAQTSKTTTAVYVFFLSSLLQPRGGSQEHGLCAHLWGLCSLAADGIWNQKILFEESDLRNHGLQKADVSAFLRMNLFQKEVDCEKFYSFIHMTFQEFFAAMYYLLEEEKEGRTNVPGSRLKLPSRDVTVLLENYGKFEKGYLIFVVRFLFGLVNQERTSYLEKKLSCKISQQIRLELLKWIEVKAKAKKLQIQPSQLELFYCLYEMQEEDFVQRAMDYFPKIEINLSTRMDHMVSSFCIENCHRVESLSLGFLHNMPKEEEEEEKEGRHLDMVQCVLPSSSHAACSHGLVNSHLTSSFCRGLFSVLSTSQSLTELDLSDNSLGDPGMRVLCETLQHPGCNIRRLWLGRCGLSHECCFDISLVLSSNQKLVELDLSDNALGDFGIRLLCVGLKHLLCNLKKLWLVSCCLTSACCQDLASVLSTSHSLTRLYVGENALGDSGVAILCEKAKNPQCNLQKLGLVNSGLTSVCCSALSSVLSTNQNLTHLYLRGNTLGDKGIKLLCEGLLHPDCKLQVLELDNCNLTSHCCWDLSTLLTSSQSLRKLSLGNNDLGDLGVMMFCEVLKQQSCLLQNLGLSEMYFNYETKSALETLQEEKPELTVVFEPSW

`CC(C)n1ccc(S(=O)(=O)NC(=O)Nc2c(-c3ccnnc3)ccc3c2CCC3)n1` [Example 223, 1-Isopropyl-N-((5-(Pyridazin-4-yl)-2,3-dihydro-1H-inden-4-yl)carbamoyl)-1H-pyrazole-3-sulfonamide, sodium salt]: the IC50 – broadly, the concentration at which inhibition is half-maximal – at NLRP3 [1] was at most 0.5 µM. For the same compound, the IC50 at NLRP3 [2] was at most 0.5 µM. In addition, in data set [3] (dose 1 mg/kg), the area under the curve (AUC) – broadly, concentration integrated over time – was 1.74 µg·h/mL; the clearance (in general, the rate of elimination divided by the concentration) was determined as 0.576 L/h/kg; the half-life (usually how long it takes for the measured level to halve) was 0.9 h; the Vd was 0.31 L/kg.

In the case of `CCn1nc(S(=O)(=O)NC(=O)Nc2c(-c3ccnc(OC)c3)ccc3c2CCC3)cc1CN(C)C` [Example 64, 5-((Dimethylamino)methyl)-1-ethyl-N-((5-(2-methoxypyridin-4-yl)-2,3-dihydro-1H-inden-4-yl)carbamoyl)-1H-pyrazole-3-sulfonamide], the IC50 at NLRP3 [1] is at most 0.5 µM. For the same compound, at NLRP3 [2], the IC50 is at most 0.5 µM. In data set [3] (dose 1.7 mg/kg), the AUC amounted to 2.71 µg·h/mL, the clearance worked out at 0.63 L/h/kg, the half-life is 3.8 h and the Vd turned out to be 1.23 L/kg.

For the compound `COc1cc(-c2cc(F)c3c(c2NC(=O)NS(=O)(=O)c2ccn(C(C)C)n2)CCC3)ccn1` [Example 55, N-((7-Fluoro-5-(2-methoxypyridin-4-yl)-2,3-dihydro-1H-inden-4-yl)carbamoyl)-1-isopropyl-1H-pyrazole-3-sulfonamide], the IC50 on NLRP3 [1] was at most 1 µM. On NLRP3 [2], the IC50 is at most 0.5 µM. In data set [3] (dose 1 mg/kg), the exposure (AUC) stood at 1.86 µg·h/mL, the clearance is 0.588 L/h/kg, the half-life was 6.9 h and the Vd amounted to 3.25 L/kg.

In the case of `COc1cc(-c2ccc3c(c2NC(=O)NS(=O)(=O)c2ccn(C(C)C)n2)CCO3)ccn1` [Example 224, 1-Isopropyl-N-((5-(2-methoxypyridin-4-yl)-2,3-dihydrobenzofuran-4-yl)carbamoyl)-1H-pyrazole-3-sulfonamide, sodium salt], the IC50 on NLRP3 [1] was at most 0.5 µM. For the same compound, at NLRP3 [2], the IC50 is at most 0.5 µM. Besides, in data set [3] (dose 1 mg/kg), the area under the curve (AUC) turned out to be 6.48 µg·h/mL, the clearance was found to be 0.156 L/h/kg, the half-life was 3.2 h and the Vd came out at 0.47 L/kg.

Consider `CC(C)c1cc(F)cc(-c2cccnc2)c1NC(=O)NS(=O)(=O)c1ccn(C(C)C)n1` [Example 1, N-((4-Fluoro-2-iso-propyl-6-(pyridin-3-yl)phenyl)carbamoyl)-1-iso-propyl-1H-pyrazole-3-sulfonamide], for which, on NLRP3 [1], the 50% inhibitory concentration (IC50) is at most 0.5 µM. For the same compound, at NLRP3 [2], the IC50 was at most 0.5 µM. Besides, in data set [3] (dose 1 mg/kg), the AUC came to 0.341 µg·h/mL, the clearance amounted to 2.95 L/h/kg, the half-life was 3.3 h and the Vd worked out at 4.49 L/kg.

Regarding `CC(C)n1cc(S(=O)(=O)NC(=O)Nc2c(-c3ccnc(C#N)c3)ccc3c2CCC3)nn1` [Example 230, N-((5-(2-Cyanopyridin-4-yl)-2,3-dihydro-1H-inden-4-yl)carbamoyl)-1-isopropyl-1H-1,2,3-triazole-4-sulfonamide, sodium salt], the IC50 on NLRP3 [1] is at most 0.5 µM. Also, the IC50 at NLRP3 [2] was at most 0.5 µM. Besides, in data set [3] (dose 1 mg/kg), the area under the curve (AUC) came out at 1.95 µg·h/mL, the clearance turned out to be 0.51 L/h/kg, the half-life was 1.3 h and the Vd worked out at 0.24 L/kg.

For `Cc1cc(-c2cc(F)cc(C(C)C)c2NC(=O)NS(=O)(=O)c2cc(CN(C)C)n(C)n2)n(C)n1` [Example 45], at NLRP3 [1], the IC50 was at most 0.5 µM. Further, on NLRP3 [2], the half-maximal inhibitory concentration (IC50) is at most 0.5 µM. Moreover, in data set [3] (dose 1 mg/kg), the AUC came out at 0.259 µg·h/mL, the clearance was determined as 3.94 L/h/kg, the half-life is 0.5 h and the Vd turned out to be 0.98 L/kg.

Take `CC(C)c1cc(F)cc(-c2ccnc(C#N)c2)c1NC(=O)NS(=O)(=O)c1ccn(C(C)C)n1` [Example 28, N-((2-(2-Cyanopyridin-4-yl)-4-fluoro-6-iso-propylphenyl)carbamoyl)-1-iso-propyl-1H-pyrazole-3-sulfonamide]: the half-inhibitory concentration (IC50) on NLRP3 [1] is at most 0.5 µM. In addition, the IC50 on NLRP3 [2] is at most 0.5 µM. In data set [3] (dose 1 mg/kg), the AUC was found to be 0.386 µg·h/mL, the clearance turned out to be 2.6 L/h/kg, the half-life is 1.2 h and the Vd worked out at 1.07 L/kg.

Regarding `COc1cc(-c2ccc3c(c2NC(=O)NS(=O)(=O)c2ccn(CCN(C)C)n2)CCC3)ccn1` [Example 61, 1-(2-(Dimethylamino)ethyl)-N-((5-(2-methoxypyridin-4-yl)-2,3-dihydro-1H-inden-4-yl)carbamoyl)-1H-pyrazole-3-sulfonamide], the IC50 at NLRP3 [1] was at most 0.5 µM. In addition, the IC50 at NLRP3 [2] was at most 0.5 µM. In data set [3] (dose 1.69 mg/kg), the AUC is 1.15 µg·h/mL, the clearance worked out at 1.48 L/h/kg, the half-life is 1.2 h and the Vd came to 0.6 L/kg.

On to `CC(C)c1cc(F)cc(-c2cccnc2)c1NC(=O)NS(=O)(=O)c1ccn(C[C@@H](C)O)n1` [Example 60, (R)-N-((4-Fluoro-2-isopropyl-6-(pyridin-3-yl)phenyl)carbamoyl)-1-(2-hydroxypropyl)-1H-pyrazole-3-sulfonamide], for which the IC50 on NLRP3 [1] is at most 0.5 µM. The IC50 at NLRP3 [2] is at most 0.5 µM. Also, in data set [3] (dose 1 mg/kg), the AUC is 0.3 µg·h/mL, the clearance came to 3.38 L/h/kg, the half-life was 1 h and the Vd was 1.22 L/kg.

As for `CC#Cc1cc(-c2cc(F)cc(C(C)C)c2NC(=O)NS(=O)(=O)c2ccn(C(C)C)n2)ccn1` [Example 51, N-((4-Fluoro-2-isopropyl-6-(2-(prop-1-yn-1-yl)pyridin-4-yl)phenyl)carbamoyl)-1-isopropyl-1H-pyrazole-3-sulfonamide], at NLRP3 [1], the IC50 was at most 0.5 µM. For the same compound, the IC50 on NLRP3 [2] was at most 0.5 µM. Further, in data set [3] (dose 1 mg/kg), the AUC amounted to 0.6 µg·h/mL, the clearance stood at 1.67 L/h/kg, the half-life was 3.7 h and the Vd was found to be 3.68 L/kg.

With `COc1cc(-c2ccc3c(c2NC(=O)NS(=O)(=O)c2ccc(CN(C)C)cc2)CCC3)ccn1` [Example 251, 4-((Dimethylamino)methyl)-N-((5-(2-methoxypyridin-4-yl)-2,3-dihydro-1H-inden-4-yl)carbamoyl)benzenesulfonamide, sodium salt], at NLRP3 [1], the IC50 is at most 0.5 µM. Besides, on NLRP3 [2], the IC50 is at most 0.5 µM. In addition, in data set [3] (dose 1 mg/kg), the AUC was determined as 1.26 µg·h/mL, the clearance is 0.798 L/h/kg, the half-life is 2.9 h and the Vd amounted to 2.12 L/kg.

In the case of `CC(C)c1cc(F)cc(-c2ccnc(O)c2)c1NC(=O)NS(=O)(=O)c1ccn(C(C)C)n1` [Example 25, N-((4-Fluoro-2-(2-hydroxypyridin-4-yl)-6-iso-propylphenyl)carbamoyl)-1-iso-propyl-1H-pyrazole-3-sulfonamide], at NLRP3 [1], the IC50 was at most 0.5 µM. Also, the half-inhibitory concentration (IC50) at NLRP3 [2] is at most 0.5 µM. In addition, in data set [3] (dose 1 mg/kg), the area under the curve (AUC) came to 0.412 µg·h/mL, the clearance stood at 2.51 L/h/kg, the half-life was 0.4 h and the Vd was found to be 0.41 L/kg.

On to `COc1cc(-c2cc(F)cc(C(C)C)c2NC(=O)NS(=O)(=O)c2cc(CN(C)C)n(C(C)C)n2)ccn1` [Example 37, 5-((Dimethylamino)methyl)-N-((4-fluoro-2-iso-propyl-6-(2-methoxypyridin-4-yl)phenyl)carbamoyl)-1-iso-propyl-1H-pyrazole-3-sulfonamide], for which the IC50 at NLRP3 [1] was at most 0.5 µM. Also, the IC50 on NLRP3 [2] is at most 0.5 µM. Further, in data set [3] (dose 1 mg/kg), the AUC was 0.248 µg·h/mL, the clearance is 4.03 L/h/kg, the half-life is 0.3 h and the Vd worked out at 1.32 L/kg.

With `COc1cc(-c2cc(F)cc(C(C)C)c2NC(=O)NS(=O)(=O)c2cc(CN(C)C)n(C)n2)ccn1` [Example 36, 5-((Dimethylamino)methyl)-N-((4-fluoro-2-iso-propyl-6-(2-methoxypyridin-4-yl)phenyl)carbamoyl)-1-methyl-1H-pyrazole-3-sulfonamide], the IC50 on NLRP3 [1] is at most 0.5 µM. The IC50 at NLRP3 [2] was at most 0.5 µM. In data set [3] (dose 1 mg/kg), the AUC came out at 0.356 µg·h/mL, the clearance was determined as 2.86 L/h/kg, the half-life is 0.5 h and the Vd stood at 0.8 L/kg.

With `CC(C)n1ccc(S(=O)(=O)NC(=O)Nc2c(-c3ccncc3)cc(F)c3c2CCC3)n1` [Example 205, N-((7-Fluoro-5-(pyridin-4-yl)-2,3-dihydro-1H-inden-4-yl)carbamoyl)-1-isopropyl-1H-pyrazole-3-sulfonamide], the IC50 on NLRP3 [1] is at most 0.5 µM. Also, the IC50 on NLRP3 [2] was at most 0.5 µM. Moreover, in data set [3] (dose 1 mg/kg), the AUC worked out at 4.87 µg·h/mL, the clearance is 0.204 L/h/kg, the half-life was 2.6 h and the Vd was 0.57 L/kg.
